Laboratory results as given in article PMC5617480 (Oncotarget, 2017).

How the values were obtained:
Pu27 G4 = test: Fluorescence titration (Stern-Volmer quenching); type: binding; conditions: Pu27 G4-DNA, compound 20 μM, 100 mM K+
Method: We asked whether chiral platinum(II) complexes 4–6 have the ability to bind to G-quadruplex DNA. To address this, FRET assays, CD spectroscopy, G4-FID assays, and fluorescence titration analysis were performed. […] For G4-HTG21, the ^G4DC50 values of complexes 4–6 were 1.23, 1.26 and 0.99 μM, respectively; while, for G4-Pu27, the ^G4DC50 values were 1.01, 0.89, and 0.82 μM, respectively. In addition, the ^ctDNADC50/^G4DC50 ratio of the HTG21 and Pu27 G4s treated with complexes 4–6 was in the range of 50.54-90.65 and 71.56-110.67 folds, respectively. To further evaluate the binding ability of complexes 4–6 to Pu27 and HTG21G4s, CD spectroscopy and fluorescence titration analysis were performed. […] The quenching ability of complexes 4–6 to HTG21 and Pu27 G4 DNA fluorescence can be quantitatively estimated by their respective quenching constant (Kq), which was derived from the Stern-Volmer quenching equation. […] Finally, the selective binding of complexes 4–6 towards G4 DNA was analyzed by FRET-melting assays. […] In contrast, the ΔTm value for the F32T+H20M duplex DNA in the presence of complexes 4–6 was 1.18, 1.34, and 0.78 °C under the same conditions (Figure 4A). Altogether, our data indicated complexes 4–6, especially complex 6, is the best binder to G4 DNA, which caused DNA complex displaying the highest thermodynamic stability.
Supplementary Figure 26: Fluorescence emission spectra of compounds (20 μM) in 100 mM K+ solution in the absence and
presence of G-quadruplex Pu27 with 4 (A), 5 (B) and 6 (C), respectively. […]

Pu22 = test: FID assay; type: binding; conditions: for Pu22DC50: FID; for ctDNADC50/Pu22DC50: FID selectivity ratio
telomerase = target: T1, telomerase (Homo sapiens, UniProt O14746); test: TRAP assay (TRAP-silver staining assay); type: biochemical; conditions: BEL-7404 cells, 10 μM, 24 h
T1 construct: Each telomerase extract was prepared from BEL-; endogenous in cells; host or cells: BEL-7404 cell extract
T1 sequence (O14746 whole entry): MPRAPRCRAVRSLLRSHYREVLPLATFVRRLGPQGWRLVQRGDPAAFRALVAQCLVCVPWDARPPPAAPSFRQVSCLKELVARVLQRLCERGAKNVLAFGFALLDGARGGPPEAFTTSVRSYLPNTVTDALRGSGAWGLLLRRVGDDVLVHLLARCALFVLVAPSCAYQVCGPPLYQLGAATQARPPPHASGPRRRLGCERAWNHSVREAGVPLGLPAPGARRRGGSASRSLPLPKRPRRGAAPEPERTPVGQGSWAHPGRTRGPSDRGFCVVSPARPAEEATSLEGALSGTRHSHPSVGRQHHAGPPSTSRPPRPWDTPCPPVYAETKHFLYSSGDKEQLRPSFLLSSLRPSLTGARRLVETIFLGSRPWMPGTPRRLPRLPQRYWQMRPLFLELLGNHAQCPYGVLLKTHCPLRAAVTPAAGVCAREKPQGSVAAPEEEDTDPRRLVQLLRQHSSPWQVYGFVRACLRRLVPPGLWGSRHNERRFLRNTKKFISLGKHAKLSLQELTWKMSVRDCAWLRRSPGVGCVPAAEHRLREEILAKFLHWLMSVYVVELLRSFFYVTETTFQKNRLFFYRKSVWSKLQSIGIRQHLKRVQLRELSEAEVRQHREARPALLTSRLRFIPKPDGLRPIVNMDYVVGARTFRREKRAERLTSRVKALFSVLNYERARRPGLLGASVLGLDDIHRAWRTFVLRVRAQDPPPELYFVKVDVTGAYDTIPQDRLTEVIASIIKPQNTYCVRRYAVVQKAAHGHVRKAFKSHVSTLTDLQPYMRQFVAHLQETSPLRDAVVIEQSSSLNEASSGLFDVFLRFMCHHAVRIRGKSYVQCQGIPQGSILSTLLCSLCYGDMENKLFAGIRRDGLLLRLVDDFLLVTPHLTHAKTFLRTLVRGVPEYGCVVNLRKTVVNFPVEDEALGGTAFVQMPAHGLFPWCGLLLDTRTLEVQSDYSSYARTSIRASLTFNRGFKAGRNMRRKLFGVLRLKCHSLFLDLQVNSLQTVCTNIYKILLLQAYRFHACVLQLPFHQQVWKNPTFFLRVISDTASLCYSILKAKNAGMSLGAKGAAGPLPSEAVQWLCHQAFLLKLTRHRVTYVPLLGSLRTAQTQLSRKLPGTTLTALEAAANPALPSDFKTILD
T1 sequence (O60832 whole entry partner): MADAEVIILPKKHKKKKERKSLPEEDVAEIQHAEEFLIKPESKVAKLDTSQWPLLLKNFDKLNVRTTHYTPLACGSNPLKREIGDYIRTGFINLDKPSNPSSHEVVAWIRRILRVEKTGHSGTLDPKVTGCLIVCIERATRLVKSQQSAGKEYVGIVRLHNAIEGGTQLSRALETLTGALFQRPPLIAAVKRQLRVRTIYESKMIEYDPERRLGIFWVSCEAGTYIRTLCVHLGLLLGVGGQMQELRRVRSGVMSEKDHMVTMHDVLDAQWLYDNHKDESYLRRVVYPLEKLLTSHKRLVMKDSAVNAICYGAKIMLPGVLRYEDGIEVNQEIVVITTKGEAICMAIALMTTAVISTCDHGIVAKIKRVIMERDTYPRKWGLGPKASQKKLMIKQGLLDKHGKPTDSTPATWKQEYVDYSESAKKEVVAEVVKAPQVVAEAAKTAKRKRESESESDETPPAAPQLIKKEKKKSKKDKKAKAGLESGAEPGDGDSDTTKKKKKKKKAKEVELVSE
T1 sequence (Q9NPE3 whole entry partner): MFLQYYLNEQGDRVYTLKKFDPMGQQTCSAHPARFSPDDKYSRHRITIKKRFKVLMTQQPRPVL
T1 sequence (Q9NX24 whole entry partner): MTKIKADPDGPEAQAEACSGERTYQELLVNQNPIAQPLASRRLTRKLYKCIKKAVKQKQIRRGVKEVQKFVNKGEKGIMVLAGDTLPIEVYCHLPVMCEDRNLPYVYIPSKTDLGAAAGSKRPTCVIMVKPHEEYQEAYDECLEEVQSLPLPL
T1 sequence (Q9NY12 whole entry partner): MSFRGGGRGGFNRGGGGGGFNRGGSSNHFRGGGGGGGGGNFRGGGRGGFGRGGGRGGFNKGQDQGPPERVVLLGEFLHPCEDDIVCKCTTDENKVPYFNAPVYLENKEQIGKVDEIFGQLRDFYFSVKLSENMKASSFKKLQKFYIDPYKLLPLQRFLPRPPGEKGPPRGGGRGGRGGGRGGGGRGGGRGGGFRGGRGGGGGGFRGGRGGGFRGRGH
T1 sequence (Q9BUR4 whole entry partner): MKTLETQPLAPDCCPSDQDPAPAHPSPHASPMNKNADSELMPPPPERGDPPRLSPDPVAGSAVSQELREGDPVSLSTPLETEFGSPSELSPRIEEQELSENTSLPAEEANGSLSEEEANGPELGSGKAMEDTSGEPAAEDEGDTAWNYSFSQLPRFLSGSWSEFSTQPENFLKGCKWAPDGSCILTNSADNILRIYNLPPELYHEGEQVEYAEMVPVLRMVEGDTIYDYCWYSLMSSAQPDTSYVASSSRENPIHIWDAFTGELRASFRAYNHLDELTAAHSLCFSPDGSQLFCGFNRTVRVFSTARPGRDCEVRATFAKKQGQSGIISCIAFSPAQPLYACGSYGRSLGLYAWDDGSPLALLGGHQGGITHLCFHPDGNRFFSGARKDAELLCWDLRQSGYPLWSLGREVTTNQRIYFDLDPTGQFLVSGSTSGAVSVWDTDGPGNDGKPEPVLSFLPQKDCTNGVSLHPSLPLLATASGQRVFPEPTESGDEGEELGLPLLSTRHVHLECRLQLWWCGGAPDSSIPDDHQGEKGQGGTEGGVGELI
Excerpt: As mentioned above, G4s structures widely exist in telomeres, we therefore monitored the effect of chiral platinum(II) complexes on function and activity of telomerase. To address this, we first determined the effect of complexes 4–6 on the expression of some telomeric DNA-associated proteins. […] We next evaluated the activity of telomerase by TRAP assay.
Apoptosis analysis c-myc antibody, or anti-β-actin primary antibody and the Apoptosis was detected by flow cytometric analysis corresponding secondary antibody were used to detect of annexin V staining. Annexin V-FITC vs PI assay was target protein via standard washing and incubating steps. performed as previously described. Briefly, adherent Senescence induction and selective binding to NEL-7404 cells were harvested and suspended in the G4s by 4–6 in BEL-7404 cells annexin-binding buffer (5×10^5 cells/mL). Then, cells were incubated with annexin V-FITC and PI for 1.0 h at Staining for SA-β-Gal activity was carried out room temperature in the dark and immediately analyzed according to Moore and Chen reports. In brief, by flow cytometry. The data are presented as biparametric After the long-term incubation with complexes 4–6, the dot plots showing PI red fluorescence vs annexin V-FITC growth medium was aspirated and the BEL-7404 cells green fluorescence. were fixed in 2% formaldehyde/0.2% glutaraldehyde for 15.0 min at room temperature. […] Finally, the extraction, RT-PCR, and the selective binding to G4s by BEL-7404 cell cycle was determined with FACS Calibur complexes 4–6 was according to the our previous reported flow cytometer (BD) and analyzed using Cell Quest.
(BDIS) and ModFit LT (Verity Software House, Topsham, ME). Gene expression by a panel of genes for RT-Determination of caspase-3/9 activity by flow qPCR array cytometric analysis Differential expression of telomeres/telomerase-related genes was analyzed using the Telomeres & […]

ds26 = tested on: ds26; set-up: method as in earlier work; conditions: ref [1], cited from earlier work; for ctDNADC50/ds26DC50: FID selectivity ratio; for ds26DC50: FID
HeLa cells = tested on: HeLa cells; set-up: method as in earlier work; conditions: 48 h, ref [1]; cited from earlier work

Question: With cis-[PtCl2(S-(–)-FOA)] [complex 6] as the compound, how does the “Extent of quenching (%)” value (Pu27 G4) read?
Answer: 40.31%

Question: What about the “Kq (quenching constant, Stern-Volmer)” value (Pu27 G4) of the same compound?
Answer: 1.38×10^5 L·mol–1

Question: What about the Pu22DC50 (Pu22) of the same compound?
Answer: 1.14 µM

Question: What about the ctDNADC50/Pu22DC50 (Pu22) of the same compound?
Answer: 79.59

Question: And the “inhibitory ratio of telomerase activity” value (telomerase)?
Answer: 67.82%

Question: With `O=C(NC[C@H](O)CO)c1cnc2c3c(cccc13)-c1ccccc1C2=O.[Cl-].[Cl-].[Pt+2]` [ligand 3, S-(–)-FOA] as the compound, how does the ctDNADC50/ds26DC50 (ds26) read?
Answer: 11.40

Question: What about the ds26DC50 (ds26) of the same compound?
Answer: 7.88 µM

Question: And the IC50 (HeLa cells)?
Answer: 22.9 ± 0.7 µM

Question: With cis-[PtCl2(R-(+)-FOA)] [complex 5] as the compound, how does the “Extent of quenching (%)” value (Pu27 G4) read?
Answer: 30.06%

Question: What about the “Kq (quenching constant, Stern-Volmer)” value (Pu27 G4) of the same compound?
Answer: 8.80×10^4 L·mol–1

Question: What about the Pu22DC50 (Pu22) of the same compound?
Answer: 1.74 µM

Question: And the ctDNADC50/Pu22DC50 (Pu22)?
Answer: 36.60

Question: And the “inhibitory ratio of telomerase activity” value (telomerase)?
Answer: 23.35%

Question: With `O=C(NC[C@@H](O)CO)c1cnc2c3c(cccc13)-c1ccccc1C2=O.[Cl-].[Cl-].[Pt+2]` [ligand 2, R-(+)-FOA] as the compound, how does the ctDNADC50/ds26DC50 (ds26) read?
Answer: 2.77

Question: What about the ds26DC50 (ds26) of the same compound?
Answer: 14.41 µM

Question: What about the IC50 (HeLa cells) of the same compound?
Answer: 28.5 ± 0.3 µM

Question: Which “Extent of quenching (%)” value (Pu27 G4) does the source give for cis-[PtCl2(R/S-(±)-FOA)] [complex 4] here?
Answer: 32.54%

Question: And the “Kq (quenching constant, Stern-Volmer)” value (Pu27 G4)?
Answer: 1.02×10^5 L·mol–1

Question: What about the Pu22DC50 (Pu22) of the same compound?
Answer: 7.41 µM

Question: What about the ctDNADC50/Pu22DC50 (Pu22) of the same compound?
Answer: 10.24

Question: What about the “inhibitory ratio of telomerase activity” value (telomerase) of the same compound?
Answer: 63.03%

Question: Which ctDNADC50/ds26DC50 (ds26) does the source give for `O=C(NCC(O)CO)c1cnc2c3c(cccc13)-c1ccccc1C2=O.[Cl-].[Cl-].[Pt+2]` (racemic) [ligand 1, R/S-(±)-FOA] here?
Answer: 5.31

Question: And the ds26DC50 (ds26)?
Answer: 12.05 µM

Question: And the IC50 (HeLa cells)?
Answer: 25.7 ± 2.2 µM
